Source: article PMC10720383, “Acetylcholinesterase Inhibition in Rats and Humans Following Acute Fenitrothion Exposure Predicted by Physiologically Based Kinetic Modeling-Facilitated Quantitative In Vitro to In Vivo Extrapolation” (Environmental Science & Technology, 2023)

Experiments:
rat erythrocyte AChE = molecular target: T1, rat erythrocyte AChE (Rattus norvegicus, UniProt P37136); test: In vitro AChE inhibition assay with rat blood; format: biochemical
T1 construct: tissue Innovative Research Inc. (Novi, MI, USA); host or cells: rat whole blood (Sprague-Dawley), K2EDTA
Procedure: (§1) Inhibition of rat and human erythrocyte AChE by FNT and FNO was determined using rat and human blood. Additionally, in vitro AChE inhibition assay was also performed by exposing recombinant human AChE and self-prepared rat erythrocyte AChE to FNT and FNO in a low-protein medium to investigate the potential effect induced by blood matrix. Details are provided in the Supporting Information. […]
(§2) Calculation of kinetic parameters […]
(§3) Protein concentration determination for rat and human plasma […]
(§4) In vitro AChE inhibition assay with rat and human blood
(§5) Inhibition of rat and human erythrocyte AChE by FNT and FNO was determined using the protocol from Kasteel et al. (2021). The final concentrations of FNT and FNO in rat and human blood ranged from 0.05 to 500 µM and from 0.01 to 20 µM, respectively (added from 1000 times concentrated stock solutions in ethanol). Absorbance at 436 nm was measured continuously for 60 min and 10 min to detect […]
(§6) the remaining AChE activity in rat and human blood samples, respectively. Assays were conducted in triplicate, and the data obtained were analyzed in GraphPad Prism (version 5.04, San Diego, CA, USA) to define the concentration resulting in 50% inhibition (IC50). […]

human erythrocyte AChE = molecular target: T2, human erythrocyte AChE (Homo sapiens, UniProt P22303); test: In vitro AChE inhibition assay with human blood; format: biochemical
T2 construct: tissue CTIBiotech (Lyon, France); host or cells: human whole peripheral blood, K2EDTA
Procedure: as §1, §2, §3, §4, §5, §6

[1] = molecular target: T3, self-prepared rat erythrocyte AChE (Rattus norvegicus, UniProt P37136); test: In vitro AChE inhibition assay with self-prepared rat erythrocyte AChE in low-protein medium; format: biochemical
T3 construct: rat erythrocyte AChE was prepared from rat whole; tissue BioIVT (West Sussex, UK); host or cells: rat whole blood (Sprague-Dawley, mixed gender, LiHep); erythrocyte AChE prepared in house
Procedure: as §1
(§7) the remaining AChE activity in rat and human blood samples, respectively. Assays were conducted in triplicate, and the data obtained were analyzed in GraphPad Prism (version 5.04, San Diego, CA, USA) to define the concentration resulting in 50% inhibition (IC50).
(§8) In vitro AChE inhibition assay with self-prepared rat erythrocyte AChE and recombinant human […]
(§9) Based on the method described in Zhao et al. (2021), rat erythrocyte AChE was prepared from rat whole blood and the AChE activity was quantified (0.16 U/mL). The inhibition ability of FNT and FNO towards rhAChE and rat erythrocyte AChE was evaluated using a modified protocol (Zhao et al. 2021), and assays were conducted in triplicate. […] After 15 min incubation at 37℃, 150 µL reaction reagent (mixture of ATC at a final concentration of 150 µM and DTNB at a final concentration of 75 µM) was added, and the absorbance at 412 nm was measured continuously for 10 min at 37℃ to test the remaining AChE activity. The AChE activity was expressed as the remaining AChE activity relative to solvent control (100% activity) and positive control (0% activity) based on the equation (Eq S2): […]
(§10) A 412(t10 - t0) Test Compoundwhere is the change of the absorbance at 412 nm between 0 min and 10 min for the test compound; similarly, A 412(t10 - t0) Positive Control is the change of the absorbance for the CPO sample, and A 412(t10 - t0) Solvent Control the change of the absorbance for the 0.2% ethanol sample. […]
(§11) is relevant for the toxicity prediction following acute FNT exposure. The normalized sensitivity coefficients (SCs) were calculated with the equation (Eq S3)

recombinant human AChE = molecular target: T4, recombinant human AChE (Homo sapiens, UniProt P22303); test: In vitro AChE inhibition assay with recombinant human AChE in low-protein medium; format: biochemical
T4 construct: purchased Sigma-Aldrich (St. Louis, MO, USA)
Procedure: as §1, §7, §8, §9, §10, §11

[2] = assumed default for neutral and acidic compounds, no experimental data; cited from earlier work

T3 sequence (P37136 other isoform, or with tags, fused parts or gaps): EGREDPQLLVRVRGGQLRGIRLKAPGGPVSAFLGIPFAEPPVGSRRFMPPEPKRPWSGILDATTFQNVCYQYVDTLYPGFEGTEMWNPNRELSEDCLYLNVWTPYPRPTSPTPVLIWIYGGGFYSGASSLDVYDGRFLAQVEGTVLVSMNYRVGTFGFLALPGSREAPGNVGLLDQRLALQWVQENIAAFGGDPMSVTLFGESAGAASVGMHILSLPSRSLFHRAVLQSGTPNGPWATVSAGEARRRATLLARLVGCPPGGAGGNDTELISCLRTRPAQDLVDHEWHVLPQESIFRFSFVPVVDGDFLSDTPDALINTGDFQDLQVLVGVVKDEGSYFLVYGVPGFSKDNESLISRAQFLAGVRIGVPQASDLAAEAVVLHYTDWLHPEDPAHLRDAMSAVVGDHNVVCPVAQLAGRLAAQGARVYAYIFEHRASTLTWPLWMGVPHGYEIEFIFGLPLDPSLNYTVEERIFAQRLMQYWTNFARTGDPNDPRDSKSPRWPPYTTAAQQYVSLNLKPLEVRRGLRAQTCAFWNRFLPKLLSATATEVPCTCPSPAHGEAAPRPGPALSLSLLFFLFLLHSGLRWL
T4 sequence (P22303 32-614): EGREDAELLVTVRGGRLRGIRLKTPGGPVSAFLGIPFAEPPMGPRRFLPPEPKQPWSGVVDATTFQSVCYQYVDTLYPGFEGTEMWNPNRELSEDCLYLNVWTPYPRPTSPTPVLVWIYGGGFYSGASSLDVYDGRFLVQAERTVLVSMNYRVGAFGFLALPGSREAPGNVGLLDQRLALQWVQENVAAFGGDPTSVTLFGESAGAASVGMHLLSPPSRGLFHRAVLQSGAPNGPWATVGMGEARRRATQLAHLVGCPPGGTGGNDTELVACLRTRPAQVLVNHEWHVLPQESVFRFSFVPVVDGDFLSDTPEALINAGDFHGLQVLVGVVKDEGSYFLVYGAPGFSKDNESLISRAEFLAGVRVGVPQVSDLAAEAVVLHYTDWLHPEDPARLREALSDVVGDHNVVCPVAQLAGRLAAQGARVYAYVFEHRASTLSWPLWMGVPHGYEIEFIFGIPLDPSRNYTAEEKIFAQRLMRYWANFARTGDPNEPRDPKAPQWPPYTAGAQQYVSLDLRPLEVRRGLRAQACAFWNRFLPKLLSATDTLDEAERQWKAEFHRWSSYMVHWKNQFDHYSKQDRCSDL
T1 sequence (P37136 other isoform, or with tags, fused parts or gaps): as the sequence (P37136 other isoform, or with tags, fused parts or gaps) above
T2 sequence (P22303 32-617 isoform P22303-2 limits assumed): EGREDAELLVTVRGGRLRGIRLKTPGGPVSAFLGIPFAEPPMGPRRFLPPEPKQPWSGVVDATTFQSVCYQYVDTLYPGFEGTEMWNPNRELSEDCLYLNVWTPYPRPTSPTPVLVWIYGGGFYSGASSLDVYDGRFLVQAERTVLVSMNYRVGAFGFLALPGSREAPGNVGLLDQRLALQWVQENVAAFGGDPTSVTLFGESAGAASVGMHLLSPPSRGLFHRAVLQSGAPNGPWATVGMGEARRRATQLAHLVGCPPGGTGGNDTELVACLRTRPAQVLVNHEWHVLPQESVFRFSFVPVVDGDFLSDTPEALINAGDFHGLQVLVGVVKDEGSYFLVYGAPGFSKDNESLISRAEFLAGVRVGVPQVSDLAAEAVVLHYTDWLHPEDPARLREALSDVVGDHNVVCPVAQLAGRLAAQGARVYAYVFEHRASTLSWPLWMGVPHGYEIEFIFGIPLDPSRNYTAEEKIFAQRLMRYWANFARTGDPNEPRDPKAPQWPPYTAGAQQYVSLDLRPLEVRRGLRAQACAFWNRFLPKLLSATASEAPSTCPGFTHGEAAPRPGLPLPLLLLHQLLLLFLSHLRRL

| Structure (SMILES) | IC50 (rat erythrocyte AChE) [nM] | IC50 (human erythrocyte AChE) [nM] | IC50 [1] [nM] | IC50 (recombinant human AChE) [nM] | blood plasma ratio (BPr) [2] | IC50 fold lower with self-prepared rat erythrocyte AChE than in rat blood ([1]; ratio of IC50 in rat blood to IC50 with self-prepared enzyme) [fold] | IC50 fold lower with recombinant human AChE than in human blood (recombinant human AChE; ratio of IC50 in human blood to IC50 with recombinant enzyme) [fold] |
| --- | --- | --- | --- | --- | --- | --- | --- |
| COP(=S)(OC)Oc1ccc([N+](=O)[O-])c(C)c1 [FNT, O,O-dimethyl O-4-nitro-m-tolyl phosphorothioate] | ~500000 | > 500000 | 8240 | 30900 | 0.55 | – | – |
| COP(=O)(OC)Oc1ccc([N+](=O)[O-])c(C)c1 [FNO, fenitrooxon] | 950 | 840 | 180 | 250 | 0.55 | 5.3 | 3.4 |
